Laboratory results taken from patent publication US20160228434A1, “TREATMENT OF DISEASES CAUSED BY ABNORMAL LYMPHOCYTE FUNCTION WITH AN HDAC6 INHIBITOR” (priority 2013, published 2016).
Entries after “also recorded” stand apart in the source; their conditions may differ.

Assays:
Format in all cases: in vivo
[1] = test system: Treg cells (CD4+Foxp3+CD25+); experiment: Splenic Treg phenotype by flow cytometry in treated NZB/W mice; conditions: 38-week-old NZB/W mice, both doses (5 and 20 mg/kg), vs vehicle control
Description: (§1) NZB/W mice were injected intraperitoneally 5 days/week with the vehicle control (DMSO), ACY-738 treatment at 5 mg/kg (low-dose), or ACY-738 treatment at 20 mg/kg (high-dose) beginning at 22-weeks-of-age until euthanization at 38 weeks-of-age. ACY-738 was received from Acetylon Pharmaceuticals for use in all studies. Proteinuria and weight were measured every 2 weeks and blood was collected every four weeks for sera analysis. Proteinuria was measured by a standard semi-quantitative test using Siemens Uristix dipsticks (Siemens Healthcare, Deerfield, Ill., USA). Results were quantified according to the manufacturer's instructions and scored as follows: dipstick reading of 0 mg/dL=0, trace=1, 30-100 mg/dL=2, 100-300 mg/dL=3, 300-2000 mg/dL=4, and 2000+ mg/dL=5.
A single-cell suspension was obtained from the thymuses and spleens of treated NZB/W mice at 38 weeks-of-age. Briefly, the thymus was removed from each NZB/W mouse and dissociated across a sterile wire mesh in a petri dish containing ice-cold RPMI 1640 medium (Thermo Scientific). RBCs were lysed using RBC lysis buffer and cells were pelleted and washed with PBS. Splenocytes were stained with APC-conjugated CD3, FITC-conjugated CD4, eFluor450 (eF450)-conjugated CD8a, PerCP-CY5.5-conjugated CD25, and PE-conjugated Foxp3. […] Fluorescence was measured using a FACScan flow cytometer and data was analyzed by FlowJo software. […]

splenic B cells = experiment: Splenic B cell developmental stages by flow cytometry in treated NZB/W mice; conditions: either low (5 mg/kg) or high (20 mg/kg) dose
Description: as §1
Following euthanization, spleens were removed and single-cell suspensions of splenocytes were incubated with PerCP710 conjugated IgM, FITC conjugated AA4.1, PE conjugated CD23, and APC conjugated CD21 anti-mouse mAbs (eBioscience, San Diego, Calif., USA). IgM^+ cells were analyzed for the expression of AA4.1, CD23 and CD21 and divided into the following developmental stages using flow cytometry: T1 (IgM^+ CD23^− AA4.1^+ CD21^−), T2 (IgM^hi CD23^+ AA4.1^+ CD21^+), T3 (IgM^lo CD23^+ AA4.1^+ CD21^+), F0 (IgM^+ CD23^+ AA4.1^− CD21^−), MZ (IgM^+ CD23^− AA4.1^− CD21^+) or B1 (IgM^+ CD23^− AA4.1^− CD21^−). […]

thymic T cells = experiment: Thymic T cell development by flow cytometry in treated NZB/W mice; conditions: 16 weeks of treatment
Description: as §1
A single-cell suspension was obtained from the thymuses and spleens of treated NZB/W mice at 38 weeks-of-age. Briefly, the thymus was removed from each NZB/W mouse and dissociated across a sterile wire mesh in a petri dish containing ice-cold RPMI 1640 medium (Thermo Scientific). RBCs were lysed using RBC lysis buffer and cells were pelleted and washed with PBS. Splenocytes were stained with APC-conjugated CD3, FITC-conjugated CD4, eFluor450 (eF450)-conjugated CD8a, PerCP-CY5.5-conjugated CD25, and PE-conjugated Foxp3. Thymocytes were stained with APC-CD3, FITC-CD4, and PE-CD8 anti-mouse mAbs (eBioscience, San Diego, Calif., USA). Fluorescence was measured using a FACScan flow cytometer and data was analyzed by FlowJo software.
FIG. 4A depicts representative flow cytometry images of thymocytes gated on CD3 and labeled with CD4 and CD8.

[2] = test system: bone marrow pro-B cell (B220+CD43+) and pre-B cell (B220+CD43-) populations; experiment: Bone marrow pro- and pre-B cell differentiation by flow cytometry in treated NZB/W mice
Source text: Bone marrow cells were flushed in PBS with 1% BSA from the femurs of NZB/W mice following euthanization. Red blood cells (RBCs) were lysed using ammonium chloride potassium (ACK) lysing solution. Single-cell suspensions were then washed and stained with Allo-Phycocyanin (APC)-conjugated […] and Flourescein Isothiocyanate (FITC)-conjugated CD43 anti-mouse mAbs to identify pro-B cell (B220^+ CD43^+) and pre-B cell (B220^+ CD43^−) populations. Pro-B cell populations were further stained with Phycoerythirn (PE)-conjugated BP1 and PECy5 or Peridinin-chlorophyll proteins (PerCP)-conjugated CD24 anti-mouse mAbs to identify fractions A (B220^+ CD43^+ CD24^− BP1^−), B (B220^+ CD43^+ CD24^+ BP1^−), C (B220^+ CD43^+ CD24^lo BP1), and C′ (B220^+ CD43^+ CD24^hi BP1^+). Pre-B cells fractions were further stained with PE-conjugated IgD, and PECy5-conjugated IgM anti-mouse mAbs to identify fractions D (B220^+ CD43^− IgM^− IgD^−), E (B220^+ CD43^− IgM^+ IgD^−) and F (B220^+ CD43^− IgM^+ IgD^+). Fractions were measured by flow cytometric analysis. All antibodies were purchased from eBioscience (San Diego, Calif., USA). Flow cytometry was performed at that College of Veterinary Medicine Flow Cytometry Core Facility using a FACScan flow cytometer (Becton Dickinson, Franklin Lakes, N.J., USA). Flow cytometry data was analyzed using FlowJo Software (Tree Star, Ashland, Oreg., USA).
as §1
Following treatment with ACY-738, harvested bone marrow cells were stained with B220 and CD43 and the percentage of pro- and pre-B cells was determined using flow cytometric analysis. FIG. 2A depicts a representative flow cytometry image of pro-B cell (B220^+ CD43^+) and pre-B cell (B220^+ CD43^−) populations.

[3] = test system: peripheral B cells (IgM+B220+); experiment: Peripheral B cells by flow cytometry in treated NZB/W mice; conditions: 38-week-old NZB/W mice, either low (5 mg/kg) or high (20 mg/kg) dose
Description: as §1
Blood was collected prior to euthanization using retro-orbital bleeding. RBCs from the peripheral blood were lysed and single cell suspensions were labeled using FITC-conjugated B220 and PerCep710 conjugated IgM anti-mouse mAbs (eBioscience, San Diego, Calif., USA). Mature B cells were identified as IgM^+B220^+ cells. Flow cytometry data was analyzed using FlowJo.
Similarly, a single-cell suspension of peripheral B cells was obtained from the blood of 38-week-old NZB/W mice and stained for IgM and B220. […]

[4] = both high (20 mg/kg) and low (5 mg/kg) dose
[5] = i.p. 5 days/week, 22 to 38 weeks-of-age, 5 or 20 mg/kg

O=C(NO)c1cnc(NC2(c3ccccc3)CC2)nc1 [ACY-738]
percentage of splenic Treg cells (CD4+Foxp3+CD25+) [1]: significantly increased | splenic B cell populations (T1, T2, T3, F0, MZ, B1) (splenic B cells): did not significantly affect; also recorded: no effect | percentage of DN (CD3+CD4-CD8-) thymic T cells (thymic T cells; NZB/W mice at 38 weeks-of-age, 5 and 20 mg/kg): decreased the percentage of DN T cells in a dose-dependent manner; also recorded: reduced | percentage of CD3+CD4+CD8- single positive thymic T cells (thymic T cells; NZB/W mice at 38 weeks-of-age): substantial decrease | percentage of CD3+CD4-CD8+ single positive thymic T cells (thymic T cells; NZB/W mice at 38 weeks-of-age): substantial decrease | double positive (CD3+CD4+CD8+) thymic T cell numbers (thymic T cells; NZB/W mice, 5 and 20 mg/kg): increased in a dose-dependent manner | percentage of pre-B cells in fraction D [2, 4]: significant increase | percentage of pre-B cells in fraction E [2, 4]: significant increase | pre-B cells in fraction F [2, 4]: decrease | pre-B cell population (B220+CD43-) in bone marrow ([2]; i.p. 5 days/week, 22 to 38 weeks-of-age, 5 and 20 mg/kg): significantly decreased in a dose-dependent manner | percentage of pro-B cells in fraction A [2, 5]: significantly increased | percentage of pro-B cells in fraction C [2, 5]: significantly increased | percentage of pro-B cells (B220+CD43+) in bone marrow ([2]; i.p. 5 days/week, 22 to 38 weeks-of-age, 5 or 20 mg/kg, vs vehicle): not significantly altered | percentage of peripheral B cells (IgM+B220+) [3]: no effect
